Assay results taken from patent US9717243B2, “Piperidinecarboxylic acid derivatives as fungicides” (priority 2013, dated 2017).

Test: LogP by HPLC on reversed phase columns (EEC directive 79/831 Annex V.A8)
Type: physicochemical
Conditions: not given
Experimental: Calibration was done with straight-chain alkan2-ones (with 3 to 16 carbon atoms) with known LogP values (measurement of LogP values using retention times with linear interpolation between successive alkanones). Lambda-max-values were determined using UV-spectra from 200 nm to 400 nm and the peak values of the chromatographic signals.

Compared with `COC(=O)C1(c2nc(C3=NOC(c4ccccc4OS(C)(=O)=O)C3)cs2)CCN(C(=O)Nc2cn(C)nc2C(F)F)CC1` (stereo not shown) [Example I-19], `COC(=O)C1(c2nc(C3=NOC(c4ccccc4OS(C)(=O)=O)C3)cs2)CCN(C(=O)Cn2nc(C(F)F)cc2C)CC1` (stereo not shown) [Example I-64] is higher in “Log P[a]” value: 2.53 for the first, 2.96 for the second.

Compared with `COC(=O)C1(C(N)=S)CCN(C(=O)Cn2nc(C(F)(F)F)cc2C)CC1` [II-6], `Cc1cc(C(F)(F)F)nn1CC(=O)N1CCC(C#N)(C(=O)O)CC1` [IV-14] is lower in “Log P[a]” value: 2.08 for the first, 1.50 for the second.

`C#CCOc1ccc(F)c(F)c1C1CC(c2csc(C3(C(=O)OCC)CCN(C(=O)Cn4nc(C(F)F)cc4C(F)F)CC3)n2)=NO1` (stereo not shown) [Example I-28] and `C#CCOc1ccc(F)c(F)c1C1CC(c2csc(C3(C(=O)OCC=C)CCN(C(=O)Cn4nc(C(F)F)cc4C(F)F)CC3)n2)=NO1` (stereo not shown) [Example I-46] are within 0.2 log units of each other in “Log P[a]” value: 3.85 for the first, 3.94 for the second.

Compared with `CCC(C)NC(=O)C1(C#N)CCN(C(=O)Cc2ccc(Cl)cc2)CC1` (stereo not shown) [IV-37], `CCC(C)NC(=O)C1(C#N)CCN(C(=O)Cc2ccccc2)CC1` (stereo not shown) [IV-38] is lower in “Log P[a]” value: 2.46 for the first, 2.08 for the second.

Compared with `COCCOC(=O)C1(C(N)=S)CCN(C(=O)Cn2nc(C(F)F)cc2C(F)F)CC1` [II-18], `COCCOC(=O)C1(C#N)CCN(C(=O)Cn2nc(C(F)F)cc2C(F)F)CC1` [IV-2] is higher in “Log P[a]” value: 2.10 for the first, 2.32 for the second.

First: CC(C)OC(=O)C1(c2nc(C3=NOC(c4c(F)cccc4F)C3)cs2)CCN(C(=O)Cn2nc(C(F)F)cc2C(F)F)CC1 (stereo not shown) [Example I-31]
Second: O=C(Cn1nc(C(F)F)cc1C(F)F)N1CCC(C(=O)OC2CCOC2)(c2nc(C3=NOC(c4c(F)cccc4F)C3)cs2)CC1 (stereo not shown) [Example I-55]
The “Log P[a]” value of the first is higher: 3.99 for the first, 3.39 for the second.

`O=C(Cn1nc(C(F)F)cc1C(F)F)N1CCC(C(=O)OCc2ccccc2)(c2nc(C3=NOC(c4ccccc4)C3)cs2)CC1` (stereo not shown) [Example I-38] and `C#CCOc1ccccc1C1CC(c2csc(C3(C(=O)OCc4ccccc4)CCN(C(=O)Cn4nc(C(F)F)cc4C(F)F)CC3)n2)=NO1` (stereo not shown) [Example I-39] are within 0.2 log units of each other in “Log P[a]” value: 4.26 for the first, 4.34 for the second.

First: N#Cc1cccc(NC(=O)N2CCC(C#N)(C(=O)O)CC2)c1 [IV-31]
Second: CC(C)(C)OC(=O)C1(C#N)CCN(C(=O)Nc2ccccc2)CC1 [IV-20]
The “Log P[a]” value of the first is lower: 1.29 for the first, 2.82 for the second.

`C#CCOc1ccccc1C1CC(c2csc(C3(C(=O)OC)CCN(C(=O)Nc4cc(C(F)(F)F)nn4C)CC3)n2)=NO1` (stereo not shown) [Example I-80] and `C#CCOc1ccc(F)c(F)c1C1CC(c2csc(C3(C(=O)OC)CCN(C(=O)Nc4cc(C(F)(F)F)nn4C)CC3)n2)=NO1` (stereo not shown) [Example I-81] are the same in “Log P[a]” value: 3.35 for the first, 3.35 for the second.

`CC(C)OC(=O)C1(c2nc(C3=NOC(c4ccccc4)C3)cs2)CCN(C(=O)Cn2nc(C(F)F)cc2C(F)F)CC1` (stereo not shown) [Example I-32] and `C#CCOc1ccccc1C1CC(c2csc(C3(C(=O)OC(C)C)CCN(C(=O)Cn4nc(C(F)F)cc4C(F)F)CC3)n2)=NO1` (stereo not shown) [Example I-33] are within 0.2 log units of each other in “Log P[a]” value: 4.04 for the first, 4.14 for the second.

First: Cc1cc(C(F)F)nn1CC(=O)N1CCC(C#N)(C(=O)O)CC1 [IV-8]
Second: C#CCOC(=O)C1(C#N)CCN(C(=O)Cn2nc(C(F)F)cc2C(F)F)CC1 [IV-4]
The “Log P[a]” value of the first is lower: 1.10 for the first, 2.52 for the second.

First: CC(C)=CCN(C)C(=O)C1(C#N)CCN(C(=O)Nc2ccc(Cl)cc2)CC1 [IV-46]
Second: CC(C)(C)OC(=O)C1(C#N)CCN(C(=O)Cc2ccc(Cl)cc2)CC1 [IV-24]
The “Log P[a]” value of the first is lower: 3.03 for the first, 3.37 for the second.

First: C#CCOc1ccc(F)c(F)c1C1CC(c2csc(C3(C(=O)OC)CCN(C(=O)Nc4cn(C(F)F)nc4C)CC3)n2)=NO1 (stereo not shown) [Example I-18]
Second: C#CCOc1ccc(F)c(F)c1C1CC(c2csc(C3(C(=O)OC(C)C)CCN(C(=O)Cn4nc(C(F)F)cc4C(F)F)CC3)n2)=NO1 (stereo not shown) [Example I-34]
The “Log P[a]” value of the first is lower: 3.04 for the first, 4.09 for the second.

Going from `CCOC(=O)C1(c2nc(C3=NOC(c4ccccc4OS(C)(=O)=O)C3)cs2)CCN(C(=O)Cn2nc(C(F)F)cc2C(F)F)CC1` (stereo not shown) [Example I-26] to `CSCCOC(=O)C1(c2nc(C3=NOC(c4c(Cl)cccc4OS(C)(=O)=O)C3)cs2)CCN(C(=O)Cn2nc(C(F)F)cc2C(F)F)CC1` (stereo not shown) [Example I-47], the “Log P[a]” value rises from 3.51 to 3.85.

Compared with `CCC(C)NC(=O)C1(C#N)CCN(C(=O)Nc2ccc(Cl)c(C(F)(F)F)c2)CC1` (stereo not shown) [IV-39], `CCCCNC(=O)C1(C#N)CCN(C(=O)Nc2ccccc2)CC1` [IV-48] is lower in “Log P[a]” value: 3.15 for the first, 2.20 for the second.

First: NC(=S)C1(C(=O)OCc2ccccc2)CCN(C(=O)Cn2nc(C(F)F)cc2C(F)F)CC1 [II-4]
Second: N#CC1(C(=O)OC2CCOC2)CCN(C(=O)Cn2nc(C(F)F)cc2C(F)F)CC1 (stereo not shown) [IV-1]
The “Log P[a]” value of the first is higher: 2.90 for the first, 2.26 for the second.

First: COC(=O)C1(C#N)CCN(C(=O)Nc2cn(C(F)F)nc2C)CC1 [IV-18]
Second: COC(=O)C1(C(N)=S)CCN(C(=O)Nc2cn(C)nc2C(F)F)CC1 [II-16]
The “Log P[a]” value of the first is higher: 1.51 for the first, 1.22 for the second.

First: COC(=O)C1(c2nc(C3=NOC(c4c(F)cccc4F)C3)cs2)CCN(C(=O)Cn2nc(C)cc2C(F)F)CC1 (stereo not shown) [Example I-75]
Second: C#CCOc1ccc(F)c(F)c1C1CC(c2csc(C3(C(=O)OCCSC)CCN(C(=O)Cn4nc(C(F)F)cc4C(F)F)CC3)n2)=NO1 (stereo not shown) [Example I-52]
The “Log P[a]” value of the first is lower: 3.11 for the first, 3.99 for the second.

In the case of `COC(=O)C1(C(N)=S)CCN(C(=O)Nc2cc(C)ccc2C)CC1` [II-15], the “Log P[a]” value is reported as 2.02.

Same assay, conditions: Table 1, compounds of formula (I); LC-UV, acidic range, 0.1% formic acid in water and acetonitrile as eluent

`CC(C)OC(=O)C1(c2nc(C3=NOC(c4ccccc4-c4ccccc4)C3)cs2)CCN(C(=O)Cn2nc(C(F)F)cc2C(F)F)CC1` (stereo not shown) [Example I-30] and `CSCCOC(=O)C1(c2nc(C3=NOC(c4ccccc4-c4ccccc4)C3)cs2)CCN(C(=O)Cn2nc(C(F)F)cc2C(F)F)CC1` (stereo not shown) [Example I-48] are within 0.2 log units of each other in “Log P[a]” value: 4.92 for the first, 4.77 for the second.

Compared with `COC(=O)C1(c2nc(C3=NOC(c4ccccc4-c4ccccc4)C3)cs2)CCN(C(=O)Cn2nc(C(F)(F)F)cc2C)CC1` (stereo not shown) [Example I-68], `O=C(Cn1nc(C(F)F)cc1C(F)F)N1CCC(C(=O)OCc2ccccc2)(c2nc(C3=NOC(c4ccccc4-c4ccccc4)C3)cs2)CC1` (stereo not shown) [Example I-36] is higher in “Log P[a]” value: 4.49 for the first, 5.08 for the second.

Same assay, conditions: Table 1, compounds of formula (I); LC-UV, acidic range, 0.1% formic acid in water and acetonitrile as eluent; read-out: Log P[a]

`COC(=O)C1(c2nc(C3=NOC(c4c(Cl)cccc4OS(C)(=O)=O)C3)cs2)CCN(C(=O)Nc2cc(C(F)F)nn2C)CC1` (stereo not shown) [Example I-12, methyl 4-[4-(5-{2-chloro-6-[(methylsulfonyl)oxy]phenyl}-4,5-dihydro-1,2-oxazol-3-yl)-1,3-thiazol-2-yl]-1-{[3-(difluoromethyl)-1-methyl-1H-pyrazol-5-yl]carbamoyl}piperidine-4-carboxylate] gave a chromatographic logP of 2.84.

Same assay, conditions: Table 3, compounds of formula (VI); LC-UV, acidic range, 0.1% formic acid in water and acetonitrile as eluent; read-out: Log P[a]

For `COC(=O)C1(C#N)CCN(C(=O)CCl)CC1` [VI-1, methyl 1-(chloroacetyl)-4-cyanopiperidine-4-carboxylate], the chromatographic logP was 1.27.

Same assay, conditions: Table 4, compounds of formula (II); LC-UV, acidic range, 0.1% formic acid in water and acetonitrile as eluent; read-out: Log P[a]

Compared with `COC(=O)C1(C(N)=S)CCN(C(=O)Nc2cc(C(F)F)nn2C)CC1` [II-12, methyl 4-carbamothioyl-1-{[3-(difluoromethyl)-1-methyl-1H-pyrazol-5-yl]carbamoyl}piperidine-4-carboxylate], `COC(=O)C1(C(N)=S)CCN(C(=O)Cn2nc(C(F)F)cc2C(F)F)CC1` [II-11, methyl 1-{[3,5-bis(difluoromethyl)-1H-pyrazol-1-yl]acetyl}-4-carbamothioylpiperidine-4-carboxylate] is higher in chromatographic logP: 1.33 for the first, 1.98 for the second.

Same assay, conditions: pH 2.7; synthesis intermediates in preparation examples; read-out: LogP (pH 2.7)

Work on `Cn1nc(C(F)F)cc1NC(=O)Oc1ccccc1` [phenyl [3-(difluoromethyl)-1-methyl-1H-pyrazol-5-yl]carbamate] yielded a chromatographic logP of 2.18.
